Results reported in publication PMC10709440, “High-throughput ligand profile characterization in novel cell lines expressing seven heterologous insect olfactory receptors for the detection of volatile plant biomarkers” (Scientific Reports, 2023).
Like-named read-outs stand apart in the source and are kept apart here.

Columns and labels:
Drosophila OR47a = biological target: T1, Drosophila OR47a (Drosophila melanogaster, UniProt P81921); test: Calcium ion fluorescence (GCaMP6) assay, OR47a stable HEK293 cell line; type: cell-based; conditions: for OR47a response (VUAA1-normalized) at 1 μM / OR47a response (VUAA1-normalized) at 10 μM / OR47a response (VUAA1-normalized) at 100 μM / Average response: OR47a cell line; for OR47a response (VUAA1-normalized) at 1 μM: VOC concentration 1 μM; for OR47a response (VUAA1-normalized) at 10 μM: VOC concentration 10 μM; for OR47a response (VUAA1-normalized) at 100 μM: VOC concentration 100 μM; for Average response: mean of biological replicates
T1 construct: expressed in transfected cells
T1 sequence (P81921 1-385): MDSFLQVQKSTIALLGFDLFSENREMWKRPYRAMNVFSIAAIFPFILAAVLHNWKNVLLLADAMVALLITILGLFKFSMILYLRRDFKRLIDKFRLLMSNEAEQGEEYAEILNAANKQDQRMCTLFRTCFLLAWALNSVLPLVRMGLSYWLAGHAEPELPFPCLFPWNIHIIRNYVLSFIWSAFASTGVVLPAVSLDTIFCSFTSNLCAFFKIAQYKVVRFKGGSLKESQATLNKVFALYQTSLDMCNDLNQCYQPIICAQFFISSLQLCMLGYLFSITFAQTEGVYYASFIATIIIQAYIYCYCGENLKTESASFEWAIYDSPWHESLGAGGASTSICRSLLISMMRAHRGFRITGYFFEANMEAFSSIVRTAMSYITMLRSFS
T1 sequence (Q9VNB5 1-486 partner): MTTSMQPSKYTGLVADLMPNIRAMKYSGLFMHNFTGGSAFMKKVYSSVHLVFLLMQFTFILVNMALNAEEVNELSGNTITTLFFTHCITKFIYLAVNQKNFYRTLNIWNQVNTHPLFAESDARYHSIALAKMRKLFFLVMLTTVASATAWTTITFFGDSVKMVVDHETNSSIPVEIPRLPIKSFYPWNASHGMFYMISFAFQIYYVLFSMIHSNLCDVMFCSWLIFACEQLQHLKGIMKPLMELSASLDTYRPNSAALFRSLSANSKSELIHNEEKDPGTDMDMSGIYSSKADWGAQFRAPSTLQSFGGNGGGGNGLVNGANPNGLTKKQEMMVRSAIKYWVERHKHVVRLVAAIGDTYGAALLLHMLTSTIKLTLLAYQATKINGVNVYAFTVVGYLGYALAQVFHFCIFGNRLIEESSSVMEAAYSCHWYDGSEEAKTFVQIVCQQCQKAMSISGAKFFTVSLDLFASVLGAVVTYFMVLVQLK
Summary of the method: (§1)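 HEK293 lines stably expressing each Drosophila OR with GCaMP6, doxycycline-induced (1 μg/mL) 48 or 72 h. Fluorescence recorded 5 s baseline then 30 s after VOC injection at pH 7.3; ΔF=(FMAX−F0)/F0, normalized to 50 µM VUAA1 response per line, triplicate wells averaged; concentration series 0.01–100 μM.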

Drosophila OR98a = biological target: T2, Drosophila OR98a (Drosophila melanogaster, UniProt Q9VAZ3); test: Calcium ion fluorescence (GCaMP6) assay, OR98a stable HEK293 cell line; type: cell-based; conditions: for OR98a response (VUAA1-normalized) at 1 μM / OR98a response (VUAA1-normalized) at 10 μM / OR98a response (VUAA1-normalized) at 100 μM: OR98a cell line; for OR98a response (VUAA1-normalized) at 1 μM: VOC concentration 1 μM; for OR98a response (VUAA1-normalized) at 10 μM: VOC concentration 10 μM; for OR98a response (VUAA1-normalized) at 100 μM: VOC concentration 100 μM
T2 construct: expressed in transfected cells
T2 sequence (Q9VAZ3 1-397): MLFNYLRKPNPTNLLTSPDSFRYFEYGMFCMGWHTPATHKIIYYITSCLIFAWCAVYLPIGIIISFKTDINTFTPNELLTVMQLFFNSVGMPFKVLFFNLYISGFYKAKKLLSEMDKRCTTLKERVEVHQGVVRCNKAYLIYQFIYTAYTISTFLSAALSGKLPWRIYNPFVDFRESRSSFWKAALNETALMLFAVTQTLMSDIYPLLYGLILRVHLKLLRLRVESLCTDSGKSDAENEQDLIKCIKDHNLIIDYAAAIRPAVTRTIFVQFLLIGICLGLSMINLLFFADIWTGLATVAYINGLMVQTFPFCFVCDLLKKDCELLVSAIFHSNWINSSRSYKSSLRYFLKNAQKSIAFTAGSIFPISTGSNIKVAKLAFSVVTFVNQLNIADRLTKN
T2 sequence (Q9VNB5 1-486 partner): T1 sequence (Q9VNB5 1-486 partner)
Summary of the method: as §1

[1] = ligand concentration 1 (unit not given), threshold 0.05, below shown as 0
[2] = ligand concentration 10 (unit not given), threshold 0.05, below shown as 0
[3] = ligand concentration 100 (unit not given), threshold 0.05, below shown as 0
[4] = HEK293, read-out: Average response
[5] = HEK293, read-out: OR98a Average response (VUAA1-normalized)
[6] = ligand concentration 1 (unit not given), 0.05 threshold, values below shown as 0
[7] = ligand concentration 10 (unit not given), 0.05 threshold, values below shown as 0
[8] = ligand concentration 100 (unit not given), 0.05 threshold, values below shown as 0

SMILES	OR47a response (VUAA1-normalized) at 1 μM (Drosophila OR47a)	OR47a response (VUAA1-normalized) at 10 μM (Drosophila OR47a)	OR47a response (VUAA1-normalized) at 100 μM (Drosophila OR47a)	Average response (Drosophila OR47a; odorant cc. 1 µM)	Average response (Drosophila OR47a; odorant cc. 10 µM)	Average response (Drosophila OR47a; odorant cc. 100 µM)	activation at 1 µM (Drosophila OR98a; [4]) [%]	activation at 10 µM (Drosophila OR98a; [4]) [%]	activation at 100 µM (Drosophila OR98a; [4]) [%]	OR98a response (VUAA1-normalized) at 1 μM (Drosophila OR98a)	OR98a response (VUAA1-normalized) at 10 μM (Drosophila OR98a)	OR98a response (VUAA1-normalized) at 100 μM (Drosophila OR98a)	DF norm AVERAGE OR47a (Drosophila OR47a; [6])	DF norm AVERAGE OR47a (Drosophila OR47a; [7])	DF norm AVERAGE OR47a (Drosophila OR47a; [8])	DF norm AVERAGE OR98a (Drosophila OR98a; [6])	DF norm AVERAGE OR98a (Drosophila OR98a; [7])	DF norm AVERAGE OR98a (Drosophila OR98a; [8])	further results
OCCc1ccccc1 [phenethyl alcohol]	0.0564	0.0644	0.057	0.0564	0.0644	0.057	4	5	12	0.00	0.05	0.12							DF norm AVERAGE OR47a (Drosophila OR47a; [1]): 0.05643; DF norm AVERAGE OR47a (Drosophila OR47a; [2]): 0.06438; DF norm AVERAGE OR47a (Drosophila OR47a; [3]): 0.05701; activation at 1 µM (Drosophila OR98a; [5]): 4%; activation at 10 µM (Drosophila OR98a; [5]): 5%; activation at 100 µM (Drosophila OR98a; [5]): 12%; DF norm AVERAGE OR98a (Drosophila OR98a; [1]): 0; DF norm AVERAGE OR98a (Drosophila OR98a; [2]): 0.05123; DF norm AVERAGE OR98a (Drosophila OR98a; [3]): 0.122
Cc1ccccc1 [toluene]	0.00	0.00	0.00	0.00	0.0267	0.00	0	4	3.33	0.00	0.00	0.00	0	0	0	0	0	0	
C=Cc1ccccc1 [styrene]	0.00	0.00	0.00	0.0246	0.00	0.0286	4.43	0	1.16	0.00	0.00	0.00	0	0	0	0	0	0	
